Target: T1, Histone-lysine N-methyltransferase SMYD3 (Homo sapiens, UniProt Q9H7B4)
T1 sequence (Q9H7B4 whole entry): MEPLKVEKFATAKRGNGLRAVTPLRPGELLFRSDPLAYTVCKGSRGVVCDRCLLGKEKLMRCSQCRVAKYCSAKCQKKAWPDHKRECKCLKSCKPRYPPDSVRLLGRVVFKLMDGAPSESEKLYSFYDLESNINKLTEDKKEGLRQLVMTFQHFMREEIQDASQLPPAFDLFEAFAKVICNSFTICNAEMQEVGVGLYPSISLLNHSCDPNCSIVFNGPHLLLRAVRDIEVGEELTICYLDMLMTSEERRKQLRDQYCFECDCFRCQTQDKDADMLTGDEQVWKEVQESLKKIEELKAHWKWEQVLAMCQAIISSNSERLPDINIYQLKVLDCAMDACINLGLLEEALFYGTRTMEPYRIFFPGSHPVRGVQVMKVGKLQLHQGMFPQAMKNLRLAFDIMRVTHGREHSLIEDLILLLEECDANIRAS
Test: Binding affinity to SMYD3 (unknown origin) assessed as dissociation constant by GCI biosensor based analysis

With `CCC(C(=O)NC1CCCC1)N(C)Cc1ncc(C)[nH]1` (stereo unspecified) the Kd was roughly 180 µM.
`Cc1cccc(C)c1NC(=O)CN1CCCC1c1ccccc1` (stereo unspecified) showed a Kd of roughly 0.4 µM.
`Cc1cc(N2CCC(NC(C)c3sccc3C)C2=O)n(C)n1` (stereo unspecified) gave a Kd of roughly 3 µM.
`O=CNc1ccccc1` [FORMANILIDE] was tested, and the Kd was roughly 80 µM.
Molecule `Cc1ccsc1C(Cc1ccccc1)NC(=O)Cn1cncn1` (stereo unspecified) has a Kd of roughly 130 µM.
`Cc1cc(NC(=O)CCCNC(=O)c2ccsc2)no1` gave a Kd of roughly 210 µM.

Reference: ChEMBL document CHEMBL6109091, “Integrated computational and biosensor-based strategies for the discovery of allosteric SMYD3 ligands using diperodon as a starting point” (Bioorg Med Chem, 2025)
